According to patent publication US6686345B2, “DNA-cleaving antitumor agents” (Research Development Foundation, priority 1998, dated 2004):
“Also recorded” adds a separate entry of the source.

Columns and labels:
supercoiled plasmid DNA = assay: DNA cleavage of supercoiled plasmid DNA by aza-enediyne heterocycles (thiazolium and benzothiazolium salts); format: biochemical; conditions: for DNA Cleavage 1 mM: 1 mM compound; for DNA Cleavage 1 mM / DNA Cleavage 100 μM: 50 μM bp DNA, TRIS pH 8.0, 24 hrs at 37° C.; for DNA Cleavage 100 μM: 100 μM compound
Experimental: The DNA cleavage efficiency of aza-enediyne heterocycles is determined by incubating the azaenediynes with supercoiled plasmid DNA. The supercoiled DNA was diluted to 50 μM bp in 50 mM TRIS buffer at pH 8.0. […] DNA topoisomers were separated by electrophoresis (0.8% agarose, 1× TBE, 82V, 1 hr 10 min) and stained with ethidium bromide (0.25 μg/mL) and images were analyzed by phosphorimger.
(§1) The normalized percent cleavage of DNA is determined as: [formula]
DNA cleavage normalized for the small amount (10-25%) of nicked relaxed DNA in control samples (DMSO-only treated DNA) is reported in Table 6.

[1] = Stability of heterocyclic salts in methanol (CD3OD) monitored by NMR; conditions: solution in CD3OD monitored by NMR
Excerpt: The stability of solutions of these salts in CD3OD can be monitored by NMR.

[2] = tested on: supercoiled ΦX174 plasmid DNA; assay: DNA cleavage by 2-alkynyl pyridinium triflate salts; format: biochemical, ΦX174 Phage; conditions: for Normalized Percent Cleavage of ΦX174 Phage (RF-1) DNA: 24 hrs at 37° C., pH 8.0; for DNA cleavage (in words): pyridinium series
Experimental: as §1
The DNA cleavage efficiency of these azaenediyne heterocycles was determined by incubation with aqueous solutions of supercoiled ΦX174 plasmid DNA. The supercoiled DNA was diluted to 50 μM bp in 50 mM TRIS pH 8.0. The reaction mixtures containing compound and 13% v/v DMSO-d6 were incubated for 24 hrs at 37° C. DNA topoisomers were separated by agarose gel electrophoresis (1 X TBE, 90V, 1 hr), stained with ethidium bromide (0.25 μg/mL), and the images were analyzed on a fluorimager. DNA cleavage results are reported as normalized percent cleavage in Table 7 as for the thiazolium and benzothiazolium salts in Example 8.

MCF-7 cancer cells = assay: In vitro cancer cell cytotoxicity of pyridinium salts, MCF-7; format: cell-based; conditions: for IC50: Homo sapiens, MCF7, MCF-7 cells, growth inhibition
Excerpt: (§2) The 2-ethynyl-1-prop-2-ynyl-pyridinium triflate salt has less activity in the in vitro cytotoxicity assay, perhaps due to the instability of this compound in nucleophilic solvents. The IC50 (50% Inhibition Concentration) is defined as the test compound concentration where the increase from time 0 in the number or mass of treated cells is only 50% as much as the corresponding increase in the vehicle-control at the end of experiment.

A549 cancer cells = assay: In vitro cancer cell cytotoxicity of pyridinium salts, A549; format: cell-based; conditions: for IC50: Homo sapiens, A549 cells, growth inhibition
Excerpt: as §2

[3] = Thermal isomerization (aza-Bergman rearrangement) of C,N-dialkynylimine; format: physicochemical; conditions: slower than 5a to 7a
Excerpt: A general synthetic route to C,N-dialkynylimines (3-aza-enediynes) 5a,b is depicted in FIG. 1. These imines are isolated as air stable yellow oils after chromatography. When a benzene solution of 5a is heated under reflux overnight, nitrile 7a is produced in 88% yield (FIG. 2). The nitrile 7a is isolated as a single stereoisomer, which is assigned the (Z)-geometry by comparison with authentic (E)-7a. Authentic (E)-7a was synthesized by the palladium-catalyzed coupling of 1-propynyltributyltin and the (E)-enol triflate of 2-cyano-2-phenylacetophenone. Heating a solution of imine 5a in benzene containing a large excess of 1,4-cyclohexadiene (1,4-chd) as a hydrogen atom trap, or in neat 1,4-chd at 150° C. for two hours affords the nitrile 7a as the only isolable product. The imine 5b contains a pendent double bond that could serve as an intramolecular trap for the putative diradical intermediate 6 (FIG. 2). We find that heating a benzene solution of 5b containing a large excess of 1,4-chd affords only the nitrile 7b in nearly quantitative yield. In none of these reactions were any products (e.g. 8 or 10) which would arise from trapping of the 2,5-ddp intermediate 6 detected.
The ^t½ for the Bergman cyclization of the corresponding (Z)-1,6-diphenylhex-3-ene-1,5-diyne to o-terphenyl is about 1000-fold slower than the rearrangement of 5a to 7a.

Supercoiled DNA = assay: DNA cleavage by heterocyclic variants (KeAZB series); format: biochemical
Experimental: The gel depicted in FIG. 3 represents the results of the DNA cleavage experiment with KeAZB002. Supercoiled DNA (50 uM in 50 mM TRIS phosphate buffer, pH 8) was incubated with 0 (lanes 1, 5), 1 (lanes 2, 6), 100 (lanes 3, 7), or 1000 (lane 4) uM of KeAZB002 for 24 hours at 20° C. Samples for lanes 5-8 were loaded onto the agarose gel, whereas samples for lanes 1-4 were heated at 70° C. for 90 sec. prior to loading onto the gel. After electrophoresis at 60 V for 2 hrs, the DNA products were visualized with ethidium bromide staining and UV transillumination.

[4] = tested on: various cancer cell lines; assay: In vitro cytotoxicity of KeAZB002 on various cancer cell lines; format: cell-based; conditions: variety of cancer cell types, FIG. 16
[5] = tested on: A549 non-small cell lung cancer cells; assay: In vivo evaluation in SCID mice implanted with A549 cells
[6] = Stability of KeAZB002 in aqueous solution; format: physicochemical

C(#Cc1nccs1)c1ccccc1
DNA Cleavage 1 mM (supercoiled plasmid DNA): 1.5% | Stability in MeOH (Initial Decomposition) [1]: >24 h

C#CC[n+]1ccccc1C#Cc1ccc(OC)cc1 [drawing 123, 1-prop-2-ynyl-2[(4-methoxyphenyl)-ethynyl]-pyridinium triflate]
Normalized Percent Cleavage of ΦX174 Phage (RF-1) DNA ([2]; 1 μM): 7.5% | Normalized Percent Cleavage of ΦX174 Phage (RF-1) DNA ([2]; 10 μM): 71% | Normalized Percent Cleavage of ΦX174 Phage (RF-1) DNA ([2]; 50 μM): 97% | Normalized Percent Cleavage of ΦX174 Phage (RF-1) DNA ([2]; 100 μM): 100% | lowest concentration producing DNA cleavage ([2]; ΦX174 DNA): 1 µM | DNA cleavage (in words) ([2]; ΦX174 DNA): most potent DNA cleavage activity

C#CC[n+]1ccccc1C#Cc1ccc(C(F)(F)F)cc1 [drawing 131]
IC50 (MCF-7 cancer cells): 10 µM | IC50 (A549 cancer cells): 9.8 µM

C#CC[n+]1c(C#Cc2ccc(C)cc2)sc2ccccc21
DNA Cleavage 1 mM (supercoiled plasmid DNA): 100% | Stability in MeOH (Initial Decomposition) [1]: 0.333 to 0.5 h

C#CC[n+]1ccccc1C#Cc1ccc(C(F)(F)F)cc1 [drawing 124, 1-prop-2-ynyl-2[(4-trifluoromethylphenyl)-ethynyl]-pyridinium triflate]
Normalized Percent Cleavage of ΦX174 Phage (RF-1) DNA ([2]; 1 μM): 0.9% | Normalized Percent Cleavage of ΦX174 Phage (RF-1) DNA ([2]; 10 μM): 33% | Normalized Percent Cleavage of ΦX174 Phage (RF-1) DNA ([2]; 50 μM): 78% | Normalized Percent Cleavage of ΦX174 Phage (RF-1) DNA ([2]; 100 μM): 90%

C#CC[n+]1cccnc1C#Cc1ccccc1
DNA Cleavage 100 μM (supercoiled plasmid DNA): 14.4% | DNA Cleavage 1 mM (supercoiled plasmid DNA): 43.3% | Stability in MeOH (Initial Decomposition) [1]: >24 h

C#CC[n+]1ccsc1C#Cc1ccccc1 [drawing 121]
Normalized Cleavage (%) (supercoiled plasmid DNA; Concentration 25 μM): 37.31% | Normalized Cleavage (%) (supercoiled plasmid DNA; Concentration 50 μM): 56.84% | Normalized Cleavage (%) (supercoiled plasmid DNA; Concentration 100 μM): 67.29% | Normalized Cleavage (%) (supercoiled plasmid DNA; Concentration 250 μM): 92.79%

C#CC[n+]1ccccc1C#C [drawing 125, 1-prop-2-ynyl-2-ethynyl-pyridinium triflate]
Normalized Percent Cleavage of ΦX174 Phage (RF-1) DNA ([2]; 1 μM): 12% | Normalized Percent Cleavage of ΦX174 Phage (RF-1) DNA ([2]; 10 μM): 39% | Normalized Percent Cleavage of ΦX174 Phage (RF-1) DNA ([2]; 50 μM): 77% | Normalized Percent Cleavage of ΦX174 Phage (RF-1) DNA ([2]; 100 μM): 85% | growth inhibition of MCF-7 cells (in words) (MCF-7 cancer cells; MCF-7): less activity | growth inhibition of A549 cells (in words) (A549 cancer cells; A549): less activity

C#CC[n+]1ccccc1C#C[Si](C(C)C)(C(C)C)C(C)C [1-prop-2-ynyl-2[(triisopropyl-silanyl)-ethynyl]-pyridinium triflate]
Normalized Percent Cleavage of ΦX174 Phage (RF-1) DNA ([2]; 1 μM): 0% | Normalized Percent Cleavage of ΦX174 Phage (RF-1) DNA ([2]; 10 μM): 8.1% | Normalized Percent Cleavage of ΦX174 Phage (RF-1) DNA ([2]; 50 μM): 49% | Normalized Percent Cleavage of ΦX174 Phage (RF-1) DNA ([2]; 100 μM): 77% | DNA cleavage (in words) ([2]; ΦX174 DNA): cleaves DNA less efficiently than all of the other 2-alkynyl substituted analogs

C#CC[n+]1c(-c2ccccc2)c(-c2ccccc2)n(C)c1C#Cc1ccccc1
DNA Cleavage 100 μM (supercoiled plasmid DNA): 1.4% | DNA Cleavage 1 mM (supercoiled plasmid DNA): 10% | Stability in MeOH (Initial Decomposition) [1]: >24 h

C#CC[n+]1ccccc1CCc1ccccc1 [drawing 133]
IC50 (MCF-7 cancer cells): 23 µM | IC50 (A549 cancer cells): 11 µM

C(#Cc1ccccc1)/C=C\C#Cc1ccccc1 [(Z)-1,6-diphenylhex-3-ene-1,5-diyne]
t½ for the Bergman cyclization relative to rearrangement of 5a to 7a [3]: about 1000 fold

C#CC[n+]1ccccc1C#Cc1ccccc1.O=S(=O)([O-])C(F)(F)F [KeAZB009, N-propargyl-2-phenylethynylpyridiniumium triflate]
DNA cleavage (in words) (Supercoiled DNA): more potent DNA cleavage than KeAZB002

C#CC[n+]1ccsc1C#Cc1ccccc1 [drawing 119]
DNA Cleavage 100 μM (supercoiled plasmid DNA): 76% | DNA Cleavage 1 mM (supercoiled plasmid DNA): 100% | Stability in MeOH (Initial Decomposition) [1]: ˜24 hr

C[n+]1c(C#Cc2ccccc2)sc2ccccc21
DNA Cleavage 1 mM (supercoiled plasmid DNA): 96% | Stability in MeOH (Initial Decomposition) [1]: 0.167 to 0.25 h

Cn1c(C#Cc2ccccc2)[n+](CC#Cc2ccccc2)c2ccccc21.F[B-](F)(F)F [KeAZB002, N-phenylpropargyl-N-methyl-2-phenylethynylbenzimidazolium tetrafluoroborate]
DNA cleavage (in words) (Supercoiled DNA): cleaves DNA at micromolar concentrations; also recorded: cleaves the DNA, producing frank single strand breaks; also recorded: strongly temperature dependent | in vitro cytotoxicity (in words) [4]: shows activity against several tumor cell lines in vitro; also recorded: cytotoxic to a variety of cancer cell types | antitumor activity in vivo (in words) [5]: demonstrates antitumor activity in vivo; also recorded: modest antitumor activity | tumor weight ([5]; seventeen days, versus control): decreased consistently in comparison to control | stability in basic aqueous solution ([6]; basic aqueous solution): undergoes a series of reactions | stability in water ([6]; water at neutral pH): stable indefinitely

C#CC[n+]1ccccc1C#C [drawing 132]
IC50 (MCF-7 cancer cells): 63 µM | IC50 (A549 cancer cells): 21 µM

C#CC[n+]1ccccc1C#C[Si](C)(C)C [1-prop-2-ynyl-2[(trimethyl-silanyl)-ethynyl]-pyridinium triflate]
Normalized Percent Cleavage of ΦX174 Phage (RF-1) DNA ([2]; 1 μM): 9% | Normalized Percent Cleavage of ΦX174 Phage (RF-1) DNA ([2]; 10 μM): 34% | Normalized Percent Cleavage of ΦX174 Phage (RF-1) DNA ([2]; 50 μM): 73% | Normalized Percent Cleavage of ΦX174 Phage (RF-1) DNA ([2]; 100 μM): 89%

C#CC[n+]1ccccc1C#Cc1ccc(OC)cc1 [drawing 130]
IC50 (MCF-7 cancer cells): 8.7 µM | IC50 (A549 cancer cells): 2.7 µM

C#CC[n+]1c(C#Cc2ccccc2)sc2ccccc21
DNA Cleavage 100 μM (supercoiled plasmid DNA): 46% | DNA Cleavage 1 mM (supercoiled plasmid DNA): 100% | Stability in MeOH (Initial Decomposition) [1]: ˜30 min

C#CC[n+]1c(C#C[Si](C(C)C)(C(C)C)C(C)C)sc2ccccc21
DNA Cleavage 1 mM (supercoiled plasmid DNA): 0%

C(#Cc1nc2ccccc2s1)c1ccccc1
DNA Cleavage 1 mM (supercoiled plasmid DNA): 5% | Stability in MeOH (Initial Decomposition) [1]: >24 h

C#CC[n+]1ccccc1CCc1ccccc1 [drawing 128, 1-prop-2-ynyl-2-phenethyl-pyridinium triflate]
Normalized Percent Cleavage of ΦX174 Phage (RF-1) DNA ([2]; 1 μM): 2% | Normalized Percent Cleavage of ΦX174 Phage (RF-1) DNA ([2]; 10 μM): 4% | Normalized Percent Cleavage of ΦX174 Phage (RF-1) DNA ([2]; 50 μM): 10% | Normalized Percent Cleavage of ΦX174 Phage (RF-1) DNA ([2]; 100 μM): 13% | DNA cleavage (in words) ([2]; ΦX174 DNA): does not cleave DNA to any appreciable extent

C#CC[n+]1ccccc1C#Cc1ccccc1 [drawing 122, 1-prop-2-ynyl-2-phenylethynyl pyridinium triflate]
Normalized Percent Cleavage of ΦX174 Phage (RF-1) DNA ([2]; 1 μM): 0.4% | Normalized Percent Cleavage of ΦX174 Phage (RF-1) DNA ([2]; 10 μM): 17% | Normalized Percent Cleavage of ΦX174 Phage (RF-1) DNA ([2]; 50 μM): 83% | Normalized Percent Cleavage of ΦX174 Phage (RF-1) DNA ([2]; 100 μM): 87%

C[n+]1ccsc1C#Cc1ccccc1
DNA Cleavage 1 mM (supercoiled plasmid DNA): 27%

C#CC[n+]1c(C#C[Si](C)(C)C)sc2ccccc21
DNA Cleavage 1 mM (supercoiled plasmid DNA): 100%

C#CC[n+]1ccccc1C#Cc1ccccc1 [drawing 129]
IC50 (MCF-7 cancer cells): 3.1 µM | IC50 (A549 cancer cells): 3.3 µM
